Where two headings read alike, the source gives them in different places.

EC50 and maximum % kill data for 5 compounds are collected here from patent US20230287138A1, “PROTEIN-DRUG CONJUGATES COMPRISING CAMPTOTHECIN ANALOGS AND METHODS OF USE THEREOF” (Regneron Pharmaceuticals, Inc., priority 2022, published 2023).

Assay [1] has as its system SK-BR-3 cells. Description: In vitro cytotoxicity assay in SK-BR-3 cells (CellTiter-Glo 2.0). The conditions noted are these: for EC50: Homo sapiens. It is filed as cell-based, human. The protocol:
To test the ability of anti-Her2 drug conjugates (ADCs) of the present disclosure (see Table 5) to kill human cell lines, an in vitro cytotoxicity assay was performed. In vitro cytotoxicity of the ADCs, isotype control ADCs, and reference free payloads were evaluated using the CellTiter-Glo 2.0 Assay Kit (Promega, Cat #G9243), in which the quantity of ATP present is used to determine the number of viable cells in culture.
The last well in each dilution series (untreated wells) served as blank controls containing only the media (ADCs) or media plus 0.2% DMSO (payloads) and was plotted as a continuation of the 3-fold serial dilution. Six days later, 100 μL of CellTiter Glo 2.0 was added to each well, plates were mixed for 2 minutes on an orbital shaker, and plates were incubated at room temperature for 10 minutes. Relative light units (RLUs) were measured on an Envision luminometer (PerkinElmer), and cell viability was expressed as a percentage of the untreated (100% viable) cells. IC50 values were determined using a four-parameter logistic equation over a 10-point dose response curve (GraphPad Prism). The maximum % kill was also determined for each test article as follows: 100−minimum percent viability.

In assay [2] the test system is HCT-15. Description: HCT-15 data of payloads and linker-payloads (EC50, with or without verapamil). It is filed as cell-based. The conditions noted are these: Homo sapiens; payload, HCT-15 cells, no verapamil; read-out: HCT-15 EC50.

Consider `CC[C@@]1(O)C(=O)OCc2c1cc1n(c2=O)Cc2c-1nc1cc(F)c(C)c3c1c2[C@@H](N)CC3` [Exatecan], for which the EC50 in assay [1] (144 h, Table 8, SK-BR-3, six days, concentrations corrected for DAR (effective payload concentration), read-out: SKBR3 EC50) worked out at 0.516 nM; in assay [1] (SK-BR-3 cells, read-out: EC50 value) it was 0.516 nM. In assay [1] (SK-BR-3 cells, 100 − minimum percent viability), the maximum % kill was about 95%.

Take `CC[C@@]1(O)C(=O)OCc2c1cc1n(c2=O)Cc2c-1nc1ccc(OC)cc1c2CN(C)Cc1ccc(OC)cc1` [P25, (S)-4-ethyl-4-hydroxy-9-methoxy-11-(((4-methoxybenzyl)(methyl)amino)methyl)-1,12-dihydro-14H-pyrano[3′,4′:6,7]indolizino[1,2-b]quinoline-3,14(4H)-dione]: in assay [2], the half-maximal effective concentration (EC50) was determined as 46.8 nM. Still for that read-out and setting: to `CC[C@@]1(O)C(=O)OCc2c1cc1n(c2=O)Cc2c-1nc1ccc(OC)cc1c2CNCc1ccccc1` [P26, (S)-11-((benzylamino)methyl)-4-ethyl-4-hydroxy-9-methoxy-1,12-dihydro-14H-pyrano[3′,4′:6,7]indolizino[1,2-b]quinoline-3,14(4H)-dione] belongs 51.9 nM; to `CC[C@@]1(O)C(=O)OCc2c1cc1n(c2=O)Cc2c-1nc1ccc(OC)cc1c2Cn1nnc2c1CCCCCC2OCC(=O)O` (stereo partly drawn) [P27, 2-((1-(((S)-4-ethyl-4-hydroxy-9-methoxy-3,14-dioxo-3,4,12,14-tetrahydro-1H-pyrano[3′,4′:6,7]indolizino[1,2-b]quinolin-11-yl)methyl)-4,5,6,7,8,9-hexahydro-1H-cycloocta[d][1,2,3]triazol-4-yl)oxy)acetic acid], 78.8 nM; to `CC[C@@]1(O)C(=O)OCc2c1cc1n(c2=O)Cc2c-1nc1ccc(OC)cc1c2Cn1cc(Cc2ccccc2)nn1` [P28, (S)-11-((4-benzyl-1H-1,2,3-triazol-1-yl)methyl)-4-ethyl-4-hydroxy-9-methoxy-1,12-dihydro-14H-pyrano[3′,4′:6,7]indolizino[1,2-b]quinoline-3,14(4H)-dione], 34.2 nM.
